Measured values published in patent US11096924B2, “Combination therapies using immuno-dash inhibitors and PGE2 antagonists” (Trustees of Tufts College, priority 2016, dated 2021).
“And” between values parts separate entries of the source, which are not always exact repeats. Equal entries are not always repeated. Where two headings read alike, the source gives them in different places. One block for each compound: values may come before it.

What was measured:
[1] = test system: MB49 murine urothelial carcinoma cell line; assay: MB49 efficacy studies in tumor bearing mice; format: in vivo
[2] = molecular target: recombinant human dipeptidyl peptidase II (DPPII) (Homo sapiens (Human), UniProt Q9UHL4); assay: In vitro inhibition assay, dipeptidyl peptidase II; format: biochemical
[3] = test system: G-CSF
[4] = Oral PK profile in mice, plasma drug concentrations; format: in vivo, BALB/c mice; conditions: 3 mg/kg oral gavage, individual mice #1-#3
Procedure: Example 8. […] Drugs dissolved in pH 2 water at 0.3 mg/mL. […] 2. Plasma prepared by centrifugation. 3. Drug concentrations measured by LCMS.

[5] = test system: macrophages; assay: Pyroptosis of macrophages in cell culture; format: cell-based; conditions: Macrophage; Example 2 table; unit inferred
[6] = test system: MV4; 11 Luc-Neo; assay: Pyroptosis in MV4;11 Luc-Neo cells; format: cell-based; conditions: Homo sapiens
[7] = test system: RAW 264.7 WT cells; assay: Pyroptosis in RAW 264.7 WT cells; format: cell-based; conditions: Mus musculus, RAW264.7
[8] = test system: THP-1 sgGFP; assay: Pyroptosis in THP-1 sgGFP cells; format: cell-based; conditions: Homo sapiens
[9] = phase I trial of talabostat and rituximab in rituximab-resistant lymphoma; cited from earlier work
[10] = Maximum tolerated dose study (single dose) in Sprague Dawley rats; format: in vivo; conditions: SD rats, based on serum drug levels, with Pyrrophenone or AACOCF3
Source text: Bars show the MTD single dose in SD rats prior to seeing animal death. […] See also FIG. 17 for a similar comparison using cPLA2 inhibitors instead of COX inhibitors.
Bars show the MTD single dose in SD rats prior to seeing animal death. Based on serum drug levels, the addition of a cPLA2 inhibitor to the I-DASH inhibitor increases that MTD dose by at least 20-fold.
Bars show the MTD single dose in SD rats prior to seeing animal death.

[11] = molecular target: DPP4 (Homo sapiens (Human), UniProt P27487); assay: EnPlex assay DPP4; format: biochemical
Sequence of DPP4 (P27487 whole entry): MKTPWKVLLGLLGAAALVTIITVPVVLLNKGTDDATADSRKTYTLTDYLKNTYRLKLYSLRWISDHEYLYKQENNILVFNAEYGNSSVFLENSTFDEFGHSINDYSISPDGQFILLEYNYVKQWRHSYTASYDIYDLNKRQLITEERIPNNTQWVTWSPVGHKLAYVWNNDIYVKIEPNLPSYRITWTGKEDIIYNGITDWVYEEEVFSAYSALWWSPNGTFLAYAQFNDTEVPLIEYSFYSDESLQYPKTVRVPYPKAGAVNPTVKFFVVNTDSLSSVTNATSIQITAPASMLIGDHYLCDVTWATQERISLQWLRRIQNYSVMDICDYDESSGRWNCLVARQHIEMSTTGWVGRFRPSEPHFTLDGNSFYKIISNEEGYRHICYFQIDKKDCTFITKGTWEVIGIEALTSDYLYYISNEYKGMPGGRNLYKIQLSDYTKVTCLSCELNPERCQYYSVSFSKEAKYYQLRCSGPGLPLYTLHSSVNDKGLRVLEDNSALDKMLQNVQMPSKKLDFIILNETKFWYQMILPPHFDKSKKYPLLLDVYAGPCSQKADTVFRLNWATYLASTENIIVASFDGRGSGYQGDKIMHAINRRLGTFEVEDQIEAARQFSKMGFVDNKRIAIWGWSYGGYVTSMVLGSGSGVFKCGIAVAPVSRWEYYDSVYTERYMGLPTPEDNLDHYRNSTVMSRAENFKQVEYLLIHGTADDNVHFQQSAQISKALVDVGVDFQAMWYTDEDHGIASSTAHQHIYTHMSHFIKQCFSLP

[12] = molecular target: recombinant human dipeptidyl peptidase IV (DPPIV) (Homo sapiens (Human), UniProt P27487); assay: In vitro inhibition assay, dipeptidyl peptidase IV; format: biochemical
Sequence of recombinant human dipeptidyl peptidase IV (DPPIV) (P27487 whole entry): as above

[13] = molecular target: DPP7 (Homo sapiens (Human), UniProt Q9UHL4); assay: EnPlex assay DPP7; format: biochemical
[14] = molecular target: recombinant human fibroblast activation protein (FAP) (Homo sapiens (Human), UniProt Q12884); assay: In vitro inhibition assay, fibroblast activation protein; format: biochemical
Sequence of recombinant human fibroblast activation protein (FAP) (Q12884 whole entry): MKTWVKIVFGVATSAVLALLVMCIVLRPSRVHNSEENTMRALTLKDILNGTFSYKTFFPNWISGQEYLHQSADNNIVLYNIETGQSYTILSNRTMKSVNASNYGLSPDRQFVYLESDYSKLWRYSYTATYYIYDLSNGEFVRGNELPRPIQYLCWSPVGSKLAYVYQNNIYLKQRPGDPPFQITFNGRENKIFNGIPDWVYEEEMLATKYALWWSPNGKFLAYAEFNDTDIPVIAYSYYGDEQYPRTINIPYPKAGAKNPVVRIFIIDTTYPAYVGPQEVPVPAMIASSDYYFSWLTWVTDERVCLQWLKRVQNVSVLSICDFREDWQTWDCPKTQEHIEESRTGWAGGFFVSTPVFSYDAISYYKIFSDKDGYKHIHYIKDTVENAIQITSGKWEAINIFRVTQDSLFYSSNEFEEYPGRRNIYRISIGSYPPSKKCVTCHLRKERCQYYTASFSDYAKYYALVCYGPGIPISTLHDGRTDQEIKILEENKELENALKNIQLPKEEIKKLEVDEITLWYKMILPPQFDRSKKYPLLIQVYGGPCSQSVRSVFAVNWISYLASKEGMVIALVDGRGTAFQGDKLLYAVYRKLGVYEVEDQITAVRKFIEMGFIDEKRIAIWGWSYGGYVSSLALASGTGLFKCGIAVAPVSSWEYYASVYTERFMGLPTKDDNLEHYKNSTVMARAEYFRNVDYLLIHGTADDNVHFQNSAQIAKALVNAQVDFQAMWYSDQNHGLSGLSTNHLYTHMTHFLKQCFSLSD

[15] = molecular target: recombinant human dipeptidyl peptidase 8 (DPP8) (Homo sapiens (Human), UniProt Q6V1X1); assay: In vitro inhibition assay, dipeptidyl peptidase 8; format: biochemical
Sequence of recombinant human dipeptidyl peptidase 8 (DPP8) (Q6V1X1 whole entry): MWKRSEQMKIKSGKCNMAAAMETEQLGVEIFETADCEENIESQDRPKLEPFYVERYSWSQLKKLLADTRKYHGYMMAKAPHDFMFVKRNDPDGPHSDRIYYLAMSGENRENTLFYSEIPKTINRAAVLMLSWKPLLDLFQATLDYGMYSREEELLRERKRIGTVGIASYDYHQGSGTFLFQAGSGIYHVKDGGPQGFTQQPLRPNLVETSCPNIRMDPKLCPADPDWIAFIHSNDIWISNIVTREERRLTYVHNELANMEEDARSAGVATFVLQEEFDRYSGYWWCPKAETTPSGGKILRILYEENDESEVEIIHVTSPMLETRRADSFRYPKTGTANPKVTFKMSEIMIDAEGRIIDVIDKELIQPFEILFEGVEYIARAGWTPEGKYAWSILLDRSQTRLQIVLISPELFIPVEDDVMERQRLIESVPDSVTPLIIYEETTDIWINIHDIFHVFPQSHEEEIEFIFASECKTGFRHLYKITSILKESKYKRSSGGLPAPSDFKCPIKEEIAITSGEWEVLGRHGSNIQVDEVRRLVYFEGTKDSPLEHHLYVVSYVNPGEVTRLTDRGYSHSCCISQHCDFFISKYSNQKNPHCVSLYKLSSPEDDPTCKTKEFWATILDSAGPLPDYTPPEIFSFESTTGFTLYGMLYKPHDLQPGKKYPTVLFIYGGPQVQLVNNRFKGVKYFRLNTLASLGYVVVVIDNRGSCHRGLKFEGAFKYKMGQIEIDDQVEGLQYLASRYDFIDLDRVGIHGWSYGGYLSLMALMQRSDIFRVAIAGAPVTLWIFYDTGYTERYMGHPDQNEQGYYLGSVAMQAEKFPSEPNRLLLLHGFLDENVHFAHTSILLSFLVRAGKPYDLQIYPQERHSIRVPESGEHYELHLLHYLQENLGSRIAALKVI

[16] = male, BALB/c, mouse, plasma, oral, 3 mg/kg, 5 min post-dose
[17] = male, BALB/c, mouse, plasma, oral, 3 mg/kg, 20 min post-dose
[18] = male, BALB/c, mouse, plasma, oral, 3 mg/kg, 30 min post-dose
[19] = male, BALB/c, mouse, plasma, oral, 3 mg/kg, 40 min post-dose
[20] = male, BALB/c, mouse, plasma, oral, 3 mg/kg, 120 min post-dose
[21] = male, BALB/c, mouse, plasma, oral, 3 mg/kg, 240 min post-dose

SMILES: Cc1ccc(-c2cc(C(F)(F)F)nn2-c2ccc(S(N)(=O)=O)cc2)cc1 [celecoxib]
tumor growth rates ([1]; celecoxib alone, various concentrations, versus vehicle): no observed differences in tumor growth rates compared to control

SMILES: N[C@H](C(=O)N1CCC[C@H]1B(O)O)C12CC3CC(CC(C3)C1)C2 (relative stereo) [ARI-5544, Gly(1-adamantyl)-boroPro]
IC50 ([2]; DPP2): 27 nM
IC50 ([2]; compound incubated at room temperature overnight at pH 2.0 or pH 7.4 prior to the assays, read-out: DPPII IC50): 21 nM
Average [G-CSF] at 6 hrs ([3]; 5 μg/animal PO): 650 pg/mL
Average [G-CSF] at 6 hrs ([3]; 20 μg/animal PO): 30000 pg/mL
Average [G-CSF] at 6 hrs ([3]; 20 μg/animal SC): 73000 pg/mL
concentration in Plasma ([4]; 5 min post-dose): 0.11 µM and 0.22 µM
concentration in Plasma ([4]; 20 min post-dose): 0.17 µM and 0.18 µM
concentration in Plasma ([4]; 30 min post-dose): 0.22 µM and 0.17 µM
concentration in Plasma ([4]; 40 min post-dose): 0.13 µM and 0.14 µM
concentration in Plasma ([4]; 60 min post-dose): 0.11 µM and 0.09 µM
concentration in Plasma ([4]; 120 min post-dose): 0.03 µM and 0.05 µM
concentration in Plasma ([4]; 240 min post-dose): 0.01 µM and 0.02 µM
concentration at 5 min [4, 16]: 160 nM
concentration at 10 min ([4]; male, BALB/c, mouse, plasma, oral, 3 mg/kg, 10 min post-dose): 270 nM
concentration at 20 min [4, 17]: 140 nM
concentration at 30 min [4, 18]: 110 nM
concentration at 40 min [4, 19]: 120 nM
concentration at 60 min ([4]; male, BALB/c, mouse, plasma, oral, 3 mg/kg, 60 min post-dose): 80 nM
concentration at 120 min [4, 20]: 30 nM
concentration at 240 min [4, 21]: 20 nM

IC50 [5]: 13 nM
SMILES: CC[C@@H](C)[C@H](N)C(=O)N1CCC[C@H]1B(O)O [compound 4317]

SMILES: CC(C)[C@H](N)C(=O)N1CCC[C@H]1B(O)O [Val-boroPro, Valine-boroProline]
IC50 [6]: 60 nM
Average [G-CSF] at 6 hrs ([3]; 20 μg/animal PO): 55000 pg/mL
Average [G-CSF] at 6 hrs ([3]; 20 μg/animal SC): 97000 pg/mL
tumor regression in combination with celecoxib ([1]; 20 microgram dose of Val-boroPro plus celecoxib, individual animal curves): facilitated the achievement of tumor regression
antitumor activity in combination with celecoxib ([1]; Val-boroPro plus celecoxib, tumor volumes over time): increased the antitumor activity of Val-boroPro markedly (statistically significantly) and in a dose-dependent manner
IC50 [7]: 98 nM
IC50 [8]: 168 nM
partial response [9]: 3 patients
increase of MTD dose on addition of a cPLA2 inhibitor [10]: at least 20 fold
IC50 [5]: 49 nM

SMILES: CC(C)(C)[C@H](N)C(=O)N1CCC[C@H]1B(O)O [ARI-4175]
Average [G-CSF] at 6 hrs ([3]; 20 μg/animal PO): 19000 pg/mL
Average [G-CSF] at 6 hrs ([3]; 20 μg/animal SC): 65000 pg/mL

SMILES: CC1(C)CCN[C@@H]1C(=O)N1CCC[C@H]1B(O)O (relative stereo) [compound 5363]
IC50 ([2]; DPP2): 110 nM

SMILES: CC1([C@H](N)C(=O)N2CCC[C@H]2B(O)O)CCCCC1 (relative stereo) [ARI-4175CH]
IC50 [11]: 5 pM
IC50 ([2]; DPP2): 54 nM
Average [G-CSF] at 6 hrs ([3]; 5 μg/animal PO): 1100 pg/mL
Average [G-CSF] at 6 hrs ([3]; 20 μg/animal PO): 51000 pg/mL
Average [G-CSF] at 6 hrs ([3]; 20 μg/animal SC): 60000 pg/mL
IC50 [12]: 2.8 nM
concentration in Plasma ([4]; 5 min post-dose): 0.23 µM and 0.42 µM
concentration in Plasma ([4]; 10 min post-dose): 0.25 µM and 0.09 µM
concentration in Plasma ([4]; 20 min post-dose): 0.23 µM and 0.27 µM
concentration in Plasma ([4]; 30 min post-dose): 0.13 µM
concentration in Plasma ([4]; 40 min post-dose): 0.25 µM and 0.19 µM
concentration in Plasma ([4]; 60 min post-dose): 0.00 µM and 0.09 µM
concentration in Plasma ([4]; 120 min post-dose): 0.07 µM and 0.09 µM
concentration in Plasma ([4]; 240 min post-dose): 0.01 µM
concentration at 5 min [4, 16]: 280 nM
concentration at 20 min [4, 17]: 230 nM
concentration at 30 min [4, 18]: 240 nM
concentration at 40 min [4, 19]: 170 nM
concentration at 120 min [4, 20]: 70 nM
concentration at 240 min [4, 21]: 10 nM
IC50 [13]: > 100 nM

IC50 [5]: 11000 nM
SMILES: C[C@H](N)C(=S)N1CCC[C@H]1B(O)O [ARI-2243]
Average [G-CSF] at 6 hrs ([3]; 20 μg/animal PO): 330 pg/mL
Average [G-CSF] at 6 hrs ([3]; 50 μg/animal IP): 2100 pg/mL
Average [G-CSF] at 6 hrs ([3]; 100 μg/animal IP): 2400 pg/mL
Average [G-CSF] at 6 hrs ([3]; 300 μg/animal IP): 4400 pg/mL

IC50 [5]: > 10000 nM
SMILES: CN(CB(O)O)C(=O)[C@@H](N)CCC(=O)O [compound 2408]

IC50 [5]: 21 nM
SMILES: CC[C@H](C)[C@H](N)C(=O)N1CCC[C@H]1B(O)O [compound 4316, theoric-boroPro]
Average [G-CSF] at 6 hrs ([3]; 20 μg/animal PO): 5000 pg/mL

SMILES: NC(N)=NCCC[C@H](N)C(=O)N1CCC[C@H]1B(O)O [Arg-boroPro]
Average [G-CSF] at 6 hrs ([3]; 20 μg/animal PO): 320 pg/mL
Average [G-CSF] at 6 hrs ([3]; 20 μg/animal SC): 160 pg/mL
Average [G-CSF] at 6 hrs ([3]; 200 μg/animal PO): 930 pg/mL
Average [G-CSF] at 6 hrs ([3]; 200 μg/animal SC): 670 pg/mL
Average [G-CSF] at 6 hrs ([3]; 2000 μg/animal PO): 3500 pg/mL
Average [G-CSF] at 6 hrs ([3]; 2000 μg/animal SC): 31000 pg/mL

SMILES: CC(C)(F)[C@H](N)C(=O)N1CCC[C@H]1B(O)O (relative stereo) [ARI-4268]
IC50 ([2]; DPP2): 68 nM
IC50 [12]: 12 nM

IC50 [5]: > 20000 nM
SMILES: CC(C)[C@H](N)C(=S)N1CCC[C@H]1B(O)O [compound 2401]

SMILES: CC1(C)CN[C@@H]1C(=O)N1CCC[C@H]1B(O)O (relative stereo) [compound 5362]
IC50 ([2]; DPP2): 67 nM
IC50 [12]: 0.5 nM

SMILES: N[C@@H](CC(=O)N1CCn2c(nnc2C(F)(F)F)C1)Cc1cc(F)c(F)cc1F [Sitagiptin, reference compound]
Average [G-CSF] at 6 hrs ([3]; 100 μg/animal SC): 100 pg/mL
Average [G-CSF] at 6 hrs ([3]; 1000 μg/animal PO): 340 pg/mL
Average [G-CSF] at 6 hrs ([3]; 2000 μg/animal SC): 950 pg/mL

SMILES: CC1([C@H](N)C(=O)N2CCC[C@H]2B(O)O)CCCC1 (relative stereo) [4175CP]
IC50 ([2]; DPP2): 9.2 nM
IC50 [12]: 2.9 nM

SMILES: CC1(C)CCCN[C@@H]1C(=O)N1CCC[C@H]1B(O)O (relative stereo) [compound 5349]
IC50 ([2]; DPP2): 610 nM
IC50 [14]: 14 µM
IC50 [12]: 92 nM
IC50 [15]: 250 nM

SMILES: N[C@@H](CCC(=O)O)C(=O)N1CCC[C@H]1B(O)O [compound 8120, Glu-boroPro]
Average [G-CSF] at 6 hrs ([3]; 20 μg/animal PO): 340 pg/mL
Average [G-CSF] at 6 hrs ([3]; 200 μg/animal PO): 160 pg/mL
Average [G-CSF] at 6 hrs ([3]; 200 μg/animal SC): 210 pg/mL
Average [G-CSF] at 6 hrs ([3]; 2000 μg/animal PO): 2300 pg/mL
Average [G-CSF] at 6 hrs ([3]; 2000 μg/animal SC): 16000 pg/mL

SMILES: N[C@H](C(=O)N1CCC[C@H]1B(O)O)C12CC3CC(CC(O)(C3)C1)C2 (relative stereo) [ARI-3102A]
IC50 ([2]; DPP2): 81 nM
IC50 [13]: > 100 nM

SMILES: N[C@H](C(=O)N1CCC[C@H]1B(O)O)C12CC3CC(CC(F)(C3)C1)C2 [ARI-5870]
IC50 ([2]; DPP2): 58 nM

SMILES: N[C@H](C(=O)N1CCC[C@H]1B(O)O)C1(C(F)(F)F)CC1 [compound 4949]
IC50 ([2]; DPP2): 39 nM

SMILES: N[C@H](C(=O)N1CCC[C@H]1B(O)O)C12CC3CC(CC(Cl)(C3)C1)C2 (relative stereo) [ARI-3102C]
IC50 [11]: 6 pM
IC50 [12]: 6 nM

SMILES: CC1([C@H](N)C(=O)N2CCC[C@H]2B(O)O)CC1 (relative stereo) [compound 4367]
IC50 ([2]; DPP2): 34 nM
IC50 [14]: 0.35 µM
IC50 [12]: 1.4 nM

IC50 [5]: 23 nM
SMILES: N[C@H](C(=O)N1CCC[C@H]1B(O)O)C1CCCCC1 [compound 1797, Crg-boroPro]
Average [G-CSF] at 6 hrs ([3]; 20 μg/animal PO): 20000 pg/mL

IC50 [5]: > 10000 nM
SMILES: C[C@H](N)C(=O)N1CCC[C@H]1B(O)O [compound 1129]
